These are literature values, as cited in patent US7858656B2, “Controlled release formulations containing an active ingredient, preferably melatonin and the method of preparation” (Ambros Pharma S.R.L., priority 2000, dated 2010).

The conditions of this data set: in various species, including man.

For `COc1ccc2[nH]cc(CCNC(C)=O)c2c1` [melatonin, N-acetyl-5-methoxytryptamine], the half-life of melatonin was 20 to 40 min.
